Assay results: US4477670A, “4-Aryloxy-1,2,3,4-tetrahydroisoquinolines” (Hoechst-Roussel Pharmaceuticals Inc., priority 1982, dated 1984)
Where a name gives a salt, the structure may show the parent alone. Read-outs that look alike come from different tables or passages of the source.

Columns and labels:
[1] = tested on: phenyl-para-quinone induced writhing; experiment: phenyl-para-quinone writhing assay in mice (analgesia); assay type: in vivo; details: subcutaneous
Text: The compounds of the invention are primarily useful as analgesic and anticonvulsant agents. […] Exptl. Biol. Med., 95, 729 (1953)]. Listed below in Table III is the analgesic effect of some of the compounds of the invention, expressed as percent inhibition of phenyl-para-quinone induced writhing.

[2] = tested on: supra maximal electroshock (extensor tonus); experiment: supra maximal electroshock assay (anticonvulsant); assay type: in vivo, male mice (Charles River, CD-1); details: Mus musculus, ip, read-out: % Inhibition (anticonvulsant effect)
Procedure: The compounds of the present invention are also useful as anticonvulsant agents for mammals as evidenced by the supra maximal electroshock assay of Woodbury, L. A. and Davenport, U. D. in Arch. Int. Pharmacodynam, Vol. 92 (1952) at pages 97-107.
In this method, groups of male mice are used (Charles River, CD-1), 18-30 grams. Drugs are prepared using distilled water and if insoluble, a surfactant is added. Control animals receive vehicle. Drugs are routinely administered intraperitoneally. The route of administration may be varied (orally, subcutaneously). The dosage volume is 10 ml/kg.
The animal's eyes are placed across the output terminals of an A.C. shocker that delivers 205 volts rms for 300 milliseconds. Electrode paste coats the animal's eyes at the point of contact with the terminals.
Protection is expressed as normalized percent inhibition relative to vehicle control.
A time response is carried out using 6 animals per group. Animals are tested at 30, 60 and 120 minutes post-drug. Additional time periods are tested if indicated by previous tests.
Listed below in Table II is the anticonvulsant effect of some of the compounds of the invention expressed as percent inhibition.

[3] = diuretic activity in rats, drug to urea ratio; assay type: in vivo, female Wistar rats; details: oral, urine 0-5 hours, vs urea 1000 mg/kg
Procedure: Selected compounds of the present invention are useful as diuretics. The diuretic activity of the compounds is measured in the following manner. Groups of female Wistar rats (150-200 grams) are used and they are food deprived 16 hours prior to testing. Drugs are prepared in 1% saline and administered in a dosage volume of 15 ml/kg orally. After dosing each animal is placed in an individual metabolic cage. Water is permitted ad libitum. Urine is collected from 0-5 hours after dosing. […] The individual urine samples are analyzed for sodium and/or potassium and chloride. Sodium and potassium values are typically determined using a flame photometer. Chloride determinations are typically made by a chloride analyzer. Sodium, potassium and chloride values are expressed as the mean milliequivalents (mEq)/kg/5 hrs. Diuresis is expressed as the mean milliliters (ml)/kg/5 hrs. The mean values obtained for sodium, potassium, chloride and diuresis are expressed in a ratio to the sodium, potassium, chloride and diuresis values obtained for the urea treated group. This ratio is called the "drug to urea ratio." A drug to urea ratio greater than or equal to one for diuresis and/or sodium is indicative of diuretic activity. The diuretic effect of some of the compounds of the invention, expressed as the ratio of (a) the mean values obtained for diuresis (urine volume) of the compound treated group to the urea treated group and (b) the mean values obtained for sodium of the compound treated group to the urea treated group, are given in Table I.

[4] = tested on: 5-HTP activity (continuous forelimb clonus); experiment: L-5-hydroxytryptophan (5 HTP) potentiation in rats; assay type: in vivo, male Wistar rats; details: Rattus norvegicus, ip
Procedure: Groups of six male Wistar rats (150-200 grams) are used in this test procedure. Four hours prior to testing pargyline HCl is prepared and administered by subcutaneous injection at 75 mg/kg in 1% saline and at a dosage volume of 1.25 ml/kg. Thirty minutes before testing, drugs are prepared using distilled water and, if insoluble, a suitable surfactant is added. Control groups receive vehicle. Drugs are routinely administered intraperitoneally (i.p.) at a dosage volume of 10 ml.kg. L-5-Hydroxytryptophan is prepared at 1.0 mg/kg in distilled water and is administered i.p. in volumes proportional to 10 ml/kg. Drugs are administered in a randomized manner and 5-minute post 5-HTP treatment the animals are observed for 15 minutes. […] Potentiation is expressed as normalized percent potentiation relative to vehicle control. When a compound is observed to potentiate 5-HTP activity, a dose range using ten animals per group is run in the same manner. An effective dose (ED) is determined by probit analysis.

[5] = tested on: ptosis of tetrabenazine-induced depression; experiment: inhibition of tetrabenazine-induced depression (ptosis) in mice; assay type: in vivo; details: intraperitoneal
[6] = intraperitoneal, probit analysis, read-out: ED50 (5-HTP potentiation)

1,2,3,4-tetrahydro-4-(p-trifluoromethylphenyl)isoquinoline hydrochloride
% Inhibition of phenyl-para-quinone induced writhing ([1]; 25.0 mg/kg): 51%

FC(F)(F)c1cccc(OC2CNCc3ccccc32)c1 (stereo not drawn) [1,2,3,4-Tetrahydro-4-(m-trifluoromethylphenoxy)isoquinoline maleate]
inhibition in vivo at 21 mg/kg ([2]; intraperitoneal, 21.0 mg/kg): 50%

FC(F)(F)c1ccc(OC2CNCc3ccccc32)cc1 (stereo not drawn) [1,2,3,4-Tetrahydro-4-(p-trifluoromethylphenoxy)isoquinoline hydrochloride]
inhibition in vivo at 35 mg/kg ([2]; intraperitoneal, 35.0 mg/kg): 50%

CN(C)CCN1Cc2ccccc2C(Oc2ccc(C(F)(F)F)cc2)C1 (stereo not drawn) [2-(2-N,N--dimethylaminoethyl)-1,2,3,4-tetrahydro-4-(p-trifluoromethylphenoxy)isoquinoline]
Diuresis Drug to Urea Ratio (Vol.) ([3]; 25 mg/kg): 1.1
Sodium Drug to Urea Ratio ([3]; 25 mg/kg): 1.4

CCN(CC)CCN1Cc2ccccc2C(Oc2ccc(C(F)(F)F)cc2)C1 (stereo not drawn) [2-(2-N,N-Diethylaminoethyl)-4-(p-trifluoromethylphenoxy)-1,2,3,4-tetrahydroisoquinoline dioxalate]
Diuresis Drug to Urea Ratio (Vol.) ([3]; 25 mg/kg): 1.4
Sodium Drug to Urea Ratio ([3]; 25 mg/kg): 1.0
inhibition in vivo at 14.8 mg/kg ([2]; intraperitoneal, 14.8 mg/kg): 50%
% Inhibition of phenyl-para-quinone induced writhing ([1]; 21.8 mg/kg): 50%

CN(C)CCN1Cc2ccccc2C(Oc2ccc(C(F)(F)F)cc2)C1 (stereo not drawn) [2-(2-N,N-Dimethylaminoethyl)-4-(p-trifluoromethylphenoxy)-1,2,3,4-tetrahydroisoquinoline dihydrochloride]
inhibition in vivo at 10.3 mg/kg ([2]; intraperitoneal, 10.3 mg/kg): 50%
% Inhibition of phenyl-para-quinone induced writhing ([1]; 14.4 mg/kg): 50%

CN(C)CCCN1Cc2ccccc2C(Oc2cccc(C(F)(F)F)c2)C1.O=C(O)/C=C\C(=O)O.O=C(O)/C=C\C(=O)O (stereo not drawn) [2-(3-Dimethylaminopropyl)-1,2,3,4-tetrahydro-4-(m-trifluoromethylphenoxy)isoquinoline dimaleate]
inhibition in vivo at 50 mg/kg ([2]; intraperitoneal): 100%
% Inhibition of phenyl-para-quinone induced writhing ([1]; 25.0 mg/kg): 53%

CN(C)CCCN1Cc2ccccc2C(Oc2ccc(C(F)(F)F)cc2)C1 (stereo not drawn) [2-(3-Dimethylaminopropyl)-1,2,3,4-tetrahydro-4-(p-trifluoromethylphenoxy)isoquinoline dihydrochloride]
inhibition in vivo at 14.4 mg/kg ([2]; intraperitoneal, 14.4 mg/kg): 50%

CN(C)CCCN1Cc2ccccc2C(Oc2ccc([N+](=O)[O-])cc2)C1 (stereo not drawn) [2-(3-N,N-dimethylaminopropyl)-4-(p-nitrophenoxy)-1,2,3,4-tetrahydroisoquinoline dihydrochloride]
% Inhibition of phenyl-para-quinone induced writhing ([1]; 14.7 mg/kg): 50%

FC(F)(F)c1ccc(OC2CN(CCCN3CCCCC3)Cc3ccccc32)cc1.O=C(O)C(=O)O.O=C(O)C(=O)O (stereo not drawn) [2-(3-Piperidinopropyl)-1,2,3,4-tetrahydro-4-(p-trifluoromethylphenoxy)isoquinoline dioxalate]
Diuresis Drug to Urea Ratio (Vol.) ([3]; 10 mg/kg): 1.6
Sodium Drug to Urea Ratio ([3]; 10 mg/kg): 2.2
% Inhibition of phenyl-para-quinone induced writhing ([1]; 15.4 mg/kg): 50%

CN1Cc2ccccc2C(Oc2cccc(C(F)(F)F)c2)C1.O=C(O)/C=C\C(=O)O (stereo not drawn) [2-Methyl-1,2,3,4-tetrahydro-4-(m-trifluoromethylphenoxy)isoquinoline maleate]
ED50 [4, 6]: 7.8 mg/kg
inhibition in vivo at 50 mg/kg ([2]; intraperitoneal): 67%
inhibition of the ptosis of tetrabenazine-induced depression ([5]; 20 mg/kg): 50%

CN1Cc2ccccc2C(Oc2ccc([N+](=O)[O-])cc2)C1 (stereo not drawn) [2-Methyl-4-(p-nitrophenoxy)-1,2,3,4-tetrahydroisoquinoline]
ED50 [4, 6]: 4.5 mg/kg
inhibition of the ptosis of tetrabenazine-induced depression ([5]; 20 mg/kg): 30%

Clc1ccc(OC2CNCc3ccccc32)cc1 (stereo not drawn) [4-(p-Chlorophenoxy)-1,2,3,4-tetrahydroisoquinoline hydrochloride]
inhibition in vivo at 23.4 mg/kg ([2]; intraperitoneal, 23.4 mg/kg): 50%

CN(C)CCCN1Cc2ccccc2C(Oc2ccc(Cl)cc2)C1 (stereo not drawn) [4-(p-Chlorophenoxy)-2-(3-dimethylaminopropyl)-1,2,3,4-tetrahydroisoquinoline dimaleate]
inhibition in vivo at 50 mg/kg ([2]; intraperitoneal): 100%

CN1Cc2ccccc2C(Oc2ccc(C#N)cc2)C1 (stereo not drawn) [4-(p-Cyanophenoxy)-2-methyl-1,2,3,4-tetrahydroisoquinoline]
Diuresis Drug to Urea Ratio (Vol.) ([3]; 50 mg/kg): 1.1
Sodium Drug to Urea Ratio ([3]; 50 mg/kg): 1.2

O=C(O)/C=C\C(=O)O.O=[N+]([O-])c1ccc(OC2CNCc3ccccc32)cc1 (stereo not drawn) [4-(p-Nitrophenoxy)-1,2,3,4-tetrahydroisoquinoline maleate]
% Inhibition of phenyl-para-quinone induced writhing ([1]; 25.0 mg/kg): 65%

CN1Cc2ccccc2C(Oc2ccc(C(F)(F)F)cc2)C1 (stereo not drawn) [4-(p-Trifluoromethylphenoxy)-2-methyl-1,2,3,4-tetrahydroisoquinoline oxalate]
inhibition in vivo at 50 mg/kg ([2]; intraperitoneal): 50%

CN(C)CCC=C1c2ccccc2CCc2ccccc21 [Amitriptyline, reference compound]
ED50 ([4]; standard, unit inferred, read-out: ED50 (5-HTP potentiation), standard): 7.1 mg/kg
inhibition of the ptosis of tetrabenazine-induced depression ([5]; 2 mg/kg): 50%

CNC1=Nc2ccc(Cl)cc2C(c2ccccc2)=[N+]([O-])C1 [Chlorodiazepoxide, reference compound]
inhibition in vivo at 8 mg/kg [2]: 50%

CN1C(=O)CN=C(c2ccccc2)c2cc(Cl)ccc21 [Diazepam, reference compound]
inhibition in vivo at 1.7 mg/kg [2]: 50%

C=C(CC)C(=O)c1ccc(OCC(=O)O)c(Cl)c1Cl [ethacrynic acid, reference compound]
Diuresis Drug to Urea Ratio (Vol.) ([3]; 64 mg/kg): 2.5

O=C(O)COc1ccc(C(=O)c2cccs2)c(Cl)c1Cl [tienilic acid, reference compound]
Diuresis Drug to Urea Ratio (Vol.) ([3]; 64 mg/kg): 1.8

Propoxyphene [reference compound]
% Inhibition of phenyl-para-quinone induced writhing ([1]; 3.9 mg/kg): 50%
